Measurements taken from ChEMBL document CHEMBL3352151, “In vitro and in vivo antibacterial evaluation and mechanistic study of ornithine based small cationic lipopeptides against antibiotic resistant clinical isolates” (Eur J Med Chem, 2014).
Converted amounts (≈) assume the structure as drawn. The source made the active and inactive calls. The rule behind the calls is not given here.

Assays:
Staphylococcus aureus [1] = assay: Antibacterial activity against clinical isolates of Staphylococcus aureus PGI/DML03054 after overnight incubation by microdilution broth assay; assay type: functional
Staphylococcus aureus [2] = assay: Antibacterial activity against clinical isolates of methicillin-resistant Staphylococcus aureus PGI/DML03149 after overnight incubation by microdilution broth assay; assay type: functional
[3] = system: Staphylococcus epidermidis; assay: Antibacterial activity against clinical isolates of Staphylococcus epidermidis GMCH/B0057 after overnight incubation by microdilution broth assay; assay type: functional
[4] = system: Staphylococcus epidermidis; assay: Antibacterial activity against clinical isolates of ampicillin-resistant Staphylococcus epidermidis GMCH/R-Amp008 after overnight incubation by microdilution broth assay; assay type: functional
Streptococcus pneumoniae [5] = assay: Antibacterial activity against clinical isolates of Streptococcus pneumoniae PGI/DML02468 after overnight incubation by microdilution broth assay; assay type: functional
Streptococcus pneumoniae [6] = assay: Antibacterial activity against clinical isolates of erythromycin-resistant Streptococcus pneumoniae PGI/DML02213 after overnight incubation by microdilution broth assay; assay type: functional
Enterococcus faecium [7] = assay: Antibacterial activity against clinical isolates of Enterococcus faecium GMCH/B0102 after overnight incubation by microdilution broth assay; assay type: functional
Enterococcus faecium [8] = assay: Antibacterial activity against clinical isolates of penicillin-resistant Enterococcus faecium GMCH/R-Pen003 after overnight incubation by microdilution broth assay; assay type: functional
[9] = Toxicity in albino mouse assessed as mortality at 15 mg/kg, iv; assay type: organism-based; parameters: dose 15 mg/kg, route intravenous; conditions: in vivo
[10] = Toxicity in albino mouse assessed as mortality at 30 mg/kg, iv; assay type: organism-based; parameters: dose 30 mg/kg, route intravenous; conditions: in vivo
[11] = Toxicity in albino mouse assessed as mortality at 45 mg/kg, iv; assay type: organism-based; parameters: dose 45 mg/kg, route intravenous; conditions: in vivo
[12] = Toxicity in albino mouse assessed as mortality at 60 mg/kg, iv; assay type: organism-based; parameters: dose 60 mg/kg, route intravenous; conditions: in vivo
[13] = Toxicity in albino mouse assessed as mortality at 75 mg/kg, iv; assay type: organism-based; parameters: dose 75 mg/kg, route intravenous; conditions: in vivo
[14] = Toxicity in albino mouse assessed as mortality at 120 mg/kg, iv; assay type: organism-based; parameters: dose 120 mg/kg, route intravenous; conditions: in vivo
Enterococcus faecalis = assay: Antibacterial activity against clinical isolates of gentamicin-resistant Enterococcus faecalis GMCH/R-Gen011 after overnight incubation by microdilution broth assay; assay type: functional
Escherichia coli [15] = assay: Antibacterial activity against clinical isolates of Escherichia coli PGI/DML02250 after overnight incubation by microdilution broth assay; assay type: functional
Pseudomonas aeruginosa [16] = assay: Antibacterial activity against clinical isolates of Pseudomonas aeruginosa PGI/DML02084 after overnight incubation by microdilution broth assay; assay type: functional
Pseudomonas aeruginosa [17] = assay: Antibacterial activity against clinical isolates of streptomycin-resistant Pseudomonas aeruginosa PGI/DML01991 after overnight incubation by microdilution broth assay; assay type: functional
Klebsiella pneumoniae [18] = assay: Antibacterial activity against clinical isolates of Klebsiella pneumoniae GMCH/B0127 after overnight incubation by microdilution broth assay; assay type: functional
Klebsiella pneumoniae [19] = assay: Antibacterial activity against clinical isolates of kanamycin-resistant Klebsiella pneumoniae GMCH/R-Kan006 after overnight incubation by microdilution broth assay; assay type: functional
Acinetobacter baumannii [20] = assay: Antibacterial activity against clinical isolates of Acinetobacter baumannii GMCH/B0083 after overnight incubation by microdilution broth assay; assay type: functional
Acinetobacter baumannii [21] = assay: Antibacterial activity against clinical isolates of imipenem-resistant Acinetobacter baumannii GMCH/R-Imi003 after overnight incubation by microdilution broth assay; assay type: functional
Haemophilus influenzae = assay: Antibacterial activity against clinical isolates of ciprofloxacin-resistant Haemophilus influenzae PGI/DML01744 after overnight incubation by microdilution broth assay; assay type: functional
Escherichia coli [22] = assay: Antibacterial activity against Escherichia coli PGI/DML02292 infected in Swiss albino mouse assessed as log reduction at 1 mg/kg administered twice at 1 hr and 5 hrs post infection relative to control; assay type: functional
Staphylococcus aureus [23] = assay: Antibacterial activity against Staphylococcus aureus PGI/DML03149 infected in Swiss albino mouse assessed as log reduction at 1 mg/kg administered twice at 1 hr and 5 hrs post infection relative to control; assay type: functional
Staphylococcus aureus [24] = assay: Antibacterial activity against Staphylococcus aureus PGI/DML03149 infected in Swiss albino mouse assessed as log reduction at 3 mg/kg administered twice at 1 hr and 5 hrs post infection relative to control; assay type: functional
Escherichia coli [25] = assay: Antibacterial activity against Escherichia coli PGI/DML02292 infected in Swiss albino mouse assessed as log reduction at 5 mg/kg administered at 1 hr post infection relative to control; assay type: functional
Staphylococcus aureus [26] = assay: Antibacterial activity against Staphylococcus aureus PGI/DML03149 infected in Swiss albino mouse assessed as log reduction at 5 mg/kg administered […] at 1 hr post infection relative to control; assay type: functional
Staphylococcus aureus [27] = assay: Antibacterial activity against Staphylococcus aureus PGI/DML03149 infected in Swiss albino mouse assessed as log reduction at 5 mg/kg administered twice at 1 hr and 5 hrs post infection relative to control; assay type: functional
[28] = Cytotoxicity against human HaCaT cells assessed as cell viability at 100 ug/ml after 18 hrs by MTT assay; assay type: cell-based; conditions: read-out: Activity
[29] = Cytotoxicity against human HaCaT cells assessed as cell viability at 500 ug/ml after 18 hrs by MTT assay; assay type: cell-based; conditions: read-out: Activity
[30] = Membrane permeabilization activity assessed as release of calcein from liposomes after 5 mins by fluorescence assay
Escherichia coli [31] = assay: Induction of membrane damage in Escherichia coli PGI/DML02292 at 6 ug/ml after 30 mins by propidium iodide staining-based flow cytometry relative to control; assay type: functional
Escherichia coli [32] = assay: Induction of membrane damage in Escherichia coli PGI/DML02292 at 9 ug/ml after 30 mins by propidium iodide staining-based flow cytometry relative to control; assay type: functional
Escherichia coli [33] = assay: Bactericidal activity against clinical isolates of Escherichia coli PGI/DML02292 assessed as surface blebs at 4 times MIC after 30 mins by […] microscopy relative to control; assay type: functional, organism-based
Escherichia coli [34] = assay: Bactericidal activity against clinical isolates of Escherichia coli PGI/DML02292 assessed as disruption of cell structure at 4 times MIC after 30 mins by transmission electron microscopy relative to control; assay type: functional, organism-based
[35] = (§1) Toxicity in iv dosed albino mouse; assay type: organism-based; conditions: in vivo
Mus musculus [36] = assay: as §1; assay type: organism-based; conditions: in vivo
Mus musculus [37] = assay: Toxicity in albino mouse assessed as death at 1 to 30 mg/kg, iv measured for 14 days; assay type: organism-based; parameters: dose 1-30 mg/kg, route intravenous; conditions: in vivo, 336 h
Mus musculus [38] = assay: Toxicity in albino mouse assessed as mortality latency at 75 mg/kg, iv; assay type: organism-based; parameters: dose 75 mg/kg, route intravenous; conditions: in vivo
Mus musculus [39] = assay: Toxicity in albino mouse assessed as mortality latency at 90 mg/kg, iv; assay type: organism-based; parameters: dose 90 mg/kg, route intravenous; conditions: in vivo
Mus musculus [40] = assay: Toxicity in albino mouse assessed as mortality latency at 120 mg/kg, iv; assay type: organism-based; parameters: dose 120 mg/kg, route intravenous; conditions: in vivo
Mus musculus [41] = assay: Toxicity in albino mouse assessed as mortality latency at 150 mg/kg, iv; assay type: organism-based; parameters: dose 150 mg/kg, route intravenous; conditions: in vivo
Mus musculus [42] = assay: Toxicity in albino mouse assessed as hypoactivity at 45 to 75 mg/kg, iv measured for 14 days; assay type: organism-based; parameters: dose 45-75 mg/kg, route intravenous; conditions: in vivo, 336 h
Mus musculus [43] = assay: Toxicity in albino mouse assessed as anorexia at 45 to 150 mg/kg, iv measured for 14 days; assay type: organism-based; parameters: dose 45-150 mg/kg, route intravenous; conditions: in vivo, 336 h
Mus musculus [44] = assay: Toxicity in albino mouse assessed as syncope at 90 to 150 mg/kg, iv measured for 14 days; assay type: organism-based; parameters: dose 90-150 mg/kg, route intravenous; conditions: in vivo, 336 h
[45] = Toxicity in albino mouse assessed as mortality at 1 mg/kg, iv; assay type: organism-based; parameters: dose 1 mg/kg, route intravenous; conditions: in vivo

## CCCCCCCCCCCCCC(=O)NC(CCCN)C(=O)NC(CCCN)C(=O)NC(CCCN)C(N)=O (stereo not given)
Staphylococcus aureus [1]
  MIC: 2.5 µg/mL (≈ 4.39 µM)
Staphylococcus aureus [2]
  MIC: 3.1 µg/mL (≈ 5.44 µM)
[3]
  MIC: 3.5 µg/mL (≈ 6.14 µM)
[4]
  MIC: 3.1 µg/mL (≈ 5.44 µM)
Streptococcus pneumoniae [5]
  MIC: 4.5 µg/mL (≈ 7.9 µM)
Streptococcus pneumoniae [6]
  MIC: 4.2 µg/mL (≈ 7.37 µM)
Enterococcus faecium [7]
  MIC: 3.5 µg/mL (≈ 6.14 µM)
Enterococcus faecium [8]
  MIC: 3.1 µg/mL (≈ 5.44 µM)
[9]
  mortality: 0%
[10]
  mortality: 0%
[11]
  mortality: 15%
[12]
  mortality: 25%
[13]
  mortality: 40%
[14]
  mortality: 75%
Enterococcus faecalis
  MIC: 4.5 µg/mL (≈ 7.9 µM)
Escherichia coli [15]
  MIC: 2 µg/mL (≈ 3.51 µM)
Pseudomonas aeruginosa [16]
  MIC: 1.5 µg/mL (≈ 2.63 µM)
Pseudomonas aeruginosa [17]
  MIC: 2.25 µg/mL (≈ 3.95 µM)
Klebsiella pneumoniae [18]
  MIC: 4 µg/mL (≈ 7.02 µM)
Klebsiella pneumoniae [19]
  MIC: 5.5 µg/mL (≈ 9.65 µM)
Acinetobacter baumannii [20]
  MIC: 2.5 µg/mL (≈ 4.39 µM)
Acinetobacter baumannii [21]
  MIC: 3.25 µg/mL (≈ 5.7 µM)
Haemophilus influenzae
  MIC: 3.1 µg/mL (≈ 5.44 µM)
Escherichia coli [22]
  FC: 1.08
Staphylococcus aureus [23]
  FC: 0.84
Staphylococcus aureus [24]
  FC: 2.8
Escherichia coli [25]
  FC: 3.68
Staphylococcus aureus [26]
  FC: 3.07
Staphylococcus aureus [27]
  FC: 4.15
[28]
  viability at 18 h, 100 ug/ml: 92%
[29]
  viability at 18 h, 500 ug/ml: 25%
[30]
  Activity: Dose-dependent effect
Escherichia coli [31]
  Activity: 54%
Escherichia coli [32]
  Activity: 79%
Escherichia coli [33]
  Activity: Active
Escherichia coli [34]
  Activity: Active
[35]
  LD50: 81.3 mg/kg
  MTD: 30 mg/kg
  NOAEL: 30 mg/kg
Mus musculus [36]
  LOAEL: 45 mg/kg
  MLD: 45 mg/kg
Mus musculus [37]
  Activity: Non-toxic
Mus musculus [38]
  Time: > 120 h
Mus musculus [39]
  Time: > 96 h
Mus musculus [40]
  Time: > 48 h
Mus musculus [41]
  Time: > 48 h
Mus musculus [42]
  Activity: Toxic
Mus musculus [43]
  Activity: Toxic
Mus musculus [44]
  Activity: Toxic
[45]
  mortality: 0%
